Source: US20050176619A1, “Antitumoral formulations of thioxanthenone” (priority 2001, published 2005)
In brackets after ≈: the same amount, converted by molar mass.

Assays:
Solubility in water = format: physicochemical
Text: (§1) It is desirable in the treatment of tumors and cancers to provide the active pharmaceutical ingredient as a ready-to-use (RTU) solution formulation which is pharmaceutically stable over prolonged periods of storage. […] Accordingly, it is an object of the present invention to overcome these difficulties by providing a stable solution formulation of N-[[1-[[2-(diethylamino)ethyl]amino]-7-methoxy-9-oxothioxanthen-4-yl]methyl]formamide, or a pharmaceutically acceptable acid-addition salt thereof, in ready-to-use form.

[1] = Stability under acidic conditions; format: physicochemical
Text: as §1

Q: With `CCN(CC)CCNc1ccc(CNC=O)c2sc3ccc(OC)cc3c(=O)c12` [N-[[1-[[2-(diethylamino)ethyl]amino]-7-methoxy-9-oxothioxanthen-4-yl]methyl]formamide] as the compound, how does the solubility (Solubility in water) read?
A: 100 µg/mL (≈ 242 µM)

Q: And the “stability under acidic conditions” value [1]?
A: unstable under acidic conditions
